Source: patent US8568968B2, “EGFR polymorphisms predict gender-related treatment” (University of Southern California, priority 2009, dated 2013)
Values joined by “and” are separate entries in the source; they are usually repeats but may differ in a detail not shown here. Equal values may be shown once.

Tested on: metastatic colon cancer patients
Assay: Overall survival of metastatic colon cancer patients treated with 5-FU-based chemotherapy, by gender and EGFR genotype
Assay type: in vivo, human
Details: for RR (95% CI): relative risk
From the text: A total of 318 patients with metastatic colon cancer treated at the University of Southern California/Norris Comprehensive Cancer Center (USC/NCCC) or the Los Angeles County/University of Southern California Medical Center (LAC/USCMC), between 1992 and 2003, were eligible for the present study. This population included only metastatic or recurrent colon cancer patients. All patients in this study signed informed consents and enrolled in protocols designed to study the molecular determinants of colon cancer. These protocols permitted blood collection (USC protocol OS-99-10) and/or tissue collection (USC protocol 0S-00-15).
All patients were entered and followed in an institutional database. Patient information was collected through database review and retrospective chart review when additional patient information was necessary. A large number of the patients (69%) were initially treated at an outside institution until, because of failure to respond to prior treatment, they were referred to USC/NCCC or LAC/USCMC for subsequent treatments. The end point of this study, OS, was determined by calculating the difference between the date of first treatment at USC/NCCC or LAC/USC and the date of last follow-up appointment or date of death from disease.
All 318 patients were enrolled in at least one chemotherapy clinical trial while being treated at this institution (USC/NCCC or LAC/USCMC). All patients were treated with 5-fluorouracil (5-FU)-based chemotherapy regimens, and response to chemotherapy was not investigated as an end point for this study. This is a heavily pretreated cohort with 20 (6%) patients treated with one line of chemotherapy, 19 (6%) patients treated with two different chemotherapy regimens, 183 (58%) patients treated with three chemotherapy regimens, and 96 (30%) patients treated with four or more chemotherapy regimens. […] All 318 patients received treatment with 5-FU, 298 (94%) patients received treatment with 5-FU/irinotecan (CPT-11), and 279 (88%) patients received treatment with 5-FU/oxaliplatin.
The primary end point of this study is OS. The OS was determined by calculating the difference between the date of first treatment at USC/NCCC or LAC/USC and the date of last follow-up appointment or date of death. Patients who were alive at the last follow-up were censored at that time.
The associations between sex and other demographic and clinical characteristics were examined using contingency tables and the Fisher exact test. The dominant code for HER-1 R497K was used for the association with OS, and patients who carried heterozygous (Arg/Lys) and homozygous mutant genotypes (Lys/Lys) were grouped together. EGFR intron 1 (CA)n repeat polymorphism was categorized into two groups: both alleles with <20 (CA)n (SEQ ID NO: 3) and any alleles with ≧20 (CA)n (SEQ ID NO: 4) as described previously (19). The associations of HER-1 R497K and EGFR intron 1 (CA)n repeat polymorphisms with OS were analyzed individually using Kaplan-Meier plots and the log-rank test. The independent effects of two EGFR polymorphisms on OS were examined in multivariable analysis using Cox proportional hazards model. Interactions between sex and EGFR polymorphisms were examined using stratified models and were tested by comparing corresponding likelihood ratio statistics between the baseline and nested Cox proportional hazards models that included the multiplicative product terms (20).

O=c1[nH]cc(F)c(=O)[nH]1 [5-FU, 5-fluorouracil]
Median survival (95% CI) (female, EGFR intron 1 any (CA)n repeats ≧20): 14.1 mo and 14.1 (12.1-18.3) mo
Median survival (95% CI) (female, EGFR intron 1 both (CA)n repeats <20): 17.6 mo and 17.9 mo and 17.6 (13.7-22.7) mo
Median survival (95% CI) (female, HER-1 R497K Arg/Arg, 5-FU-based chemotherapy regimens): 16.0 (13.5-19.2) mo
Median survival (95% CI) (female, HER-1 R497K Lys allele (Arg/Lys or Lys/Lys)): 14.0 (11.2-17.9) mo
Median survival (95% CI) (female, combined: Arg/Arg and (CA)n <20): 15.7 (11.5-41.4) mo
Median survival (95% CI) (female, combined: Arg/Arg and (CA)n ≧20 or Lys and (CA)n <20): 17.3 (14.0-19.2) mo
Median survival (95% CI) (female, combined: Lys and (CA)n ≧20): 12.2 (7.7-16.7) mo
RR (95% CI) (female, Arg/Arg and (CA)n ≧20 or Lys and (CA)n <20 vs Arg/Arg and (CA)n <20 (reference)): 0.93 (0.56-1.54)
RR (95% CI) (female, Lys allele vs Arg/Arg (reference), Cox model): 1.41 (0.94-2.10)
RR (95% CI) (female, Lys and (CA)n ≧20 vs Arg/Arg and (CA)n <20 (reference)): 1.90 (1.10-3.29)
RR (95% CI) (female, any (CA)n ≧20 vs both <20 (reference)): 1.37 (0.93-2.01)
Median survival (95% CI) (male, EGFR intron 1 any (CA)n repeats ≧20): 13.1 mo and 13.1 (10.7-16.0) mo
Median survival (95% CI) (male, EGFR intron 1 both (CA)n repeats <20): 10.3 mo and 10.4 mo and 10.3 (8.3-15.5) mo
Median survival (95% CI) (male, HER-1 R497K Arg/Arg, 5-FU-based chemotherapy regimens): 10.3 (9.0-13.5) mo
Median survival (95% CI) (male, HER-1 R497K Lys allele (Arg/Lys or Lys/Lys)): 13.7 (10.8-19.1) mo
Median survival (95% CI) (male, combined: Arg/Arg and (CA)n <20): 8.9 (7.3-11.4) mo
Median survival (95% CI) (male, combined: Arg/Arg and (CA)n ≧20 or Lys and (CA)n <20): 13.1 (10.3-17.5) mo
Median survival (95% CI) (male, combined: Lys and (CA)n ≧20): 13.6 (10.7-19.5) mo
RR (95% CI) (male, Arg/Arg and (CA)n ≧20 or Lys and (CA)n <20 vs Arg/Arg and (CA)n <20 (reference)): 0.84 (0.57-1.25)
RR (95% CI) (male, Lys allele vs Arg/Arg (reference), Cox model): 0.64 (0.46-0.89)
RR (95% CI) (male, Lys and (CA)n ≧20 vs Arg/Arg and (CA)n <20 (reference)): 0.62 (0.39-0.97)
RR (95% CI) (male, any (CA)n ≧20 vs both <20 (reference)): 0.92 (0.67-1.28)
